In patent US11478466B2, “Small molecule promoting osteoblast differentiation” (Cornell University, priority 2019, dated 2022):

Key:
C2C12 cells = experiment: C2C12 culture morphology and survival under treatment; type: cell-based, mouse; parameters: effect of continued treatment on C2C12 culture: dose or concentration left out as unconfirmed
AP-1 response element = AP-1 response element luciferase reporter assay; type: cell-based; conditions: 293T HEK cells, 7 hours, various concentrations
Description: For AP-1 reporter assays, 293T HEK cells were seeded at 0.25×10^6 cells/well of a gelatin-coated 24-well plate one day before transfection. Plasmid transfections were performed using Lipofectamine LTX (Invitrogen) according to manufacturer's protocol. Briefly, 293T HEK cells were co-transfected with pGL4.44 AP1 [luc2P/AP1 RE/Hygro] reporter plasmid (Promega) and SV40Renilla plasmid as a transfection control. 24 hours after transfection, cells were incubated in serum free DMEM media for 24 hours. The following day, cells were treated with 10 ng/ml PMA (Phorbol 12-myristate 13-acetate; Tocris) or indicated concentration of DIPQUO in serum free DMEM for 7 hours prior to lysis with 1× Passive Lysis buffer (Promega). Luciferase expression was measured using Dual-Glo Luciferase Assay (Promega).

[1] = test system: alkaline phosphatase (ALP); experiment: ALP expression staining in C2C12 cells; type: cell-based, mouse; conditions: C2C12, 2 days, 10 μM
Description: C2C12 cells were treated for 2 days with 10 μM DIPQUO or structural analogs, 1 ng/ml rhBMP4, or with inhibitors as noted in figure legends, and then fixed briefly in 70% acetone/10% formaldehyde/20% citrate. Staining was achieved using the leukocyte alkaline phosphatase kit (Sigma 86R-1KT) according to the manufacturer's instructions. Expression of ALP was confirmed and quantified by flow cytometric analysis, using an Accuri C6 flow cytometer. Briefly, control- or DIPQUO-treated C2C12 cells were detached and harvested on day 2 using PBS-based enzyme-free cell detachment solution (ThermoFisher). 2×10^5 cells were incubated on ice for 30 minutes with 10 μl APC-conjugated ALPL antibody (R&D Systems), and washed in ice-cold PBS before analysis. Live cells were gated and analyzed in CFlow Plus software and then data was converted to FlowJo to achieve publication-level resolution. For siRNA experiments, gene-specific oligonucleotides were obtained for mouse p38-alpha (Cell Signaling) and p38-beta (Santa Cruz). Signal Silence scramble siRNA control oligonucleotide was purchased from Cell Signaling. C2C12 cells at 70% confluency were transfected in 12-well plates using Lipofectamine RNAiMax reagent (Invitrogen) according to manufacturer's instructions. Transfected cells were treated 24 hours later with DMSO or 10 μM DIPQUO, and siRNA transfection was repeated after 48 hours without changing culture media. After an additional 3 days, cells were either fixed and stained for ALP expression or analyzed for ALP activity using the AttoPhos Substrate kit. Hemagglutinin and FLAG epitope-tagged MKK3 (pMT2-HA-MKK3) and MKK6 (pcDNA3-FLAG-MKK6) constructs were obtained from Addgene and transfected into C2C12 cells using Lipofectamine LTX with Plus Reagent (ThermoFisher) according to manufacturer's instructions and cell extracts analyzed for protein expression and activity as described below.

[2] = test system: primary human mesenchymal stem cells (hMSCs); experiment: In vitro mineralization assay (alizarin red) in hMSCs; type: cell-based; conditions: hMSCs in osteogenic medium, 10 μM from day 12 to 18, normalized to cell number
Description: To extend these observations to human osteoblast maturation, a quantitative assay was used to analyze mineralization in differentiating primary human mesenchymal stem cells (hMSCs). Bone marrow-derived hMSCs were cultured in unbiased growth medium for at least two passages and then cultured in osteogenic medium for 12 to 21 days and stained with alizarin red to identify a time window in which spontaneous mineralization first occurred (FIG. 4A). Subsequently, hMSCs in osteogenic medium were treated continuously with DIPQUO from day 12 to 18, stained and compared with equivalent DMSO treated controls, and then normalized to total cell numbers (FIG. 4B). DIPQUO-treated samples incorporated alizarin red in a molar ratio approximately 5 times greater than DMSO-treated samples (FIGS. 4C and 4D).
For mineralization studies, primary bone marrow-derived hMSCs (Lonza) were maintained and passaged in complete hMSC growth medium (Lonza). Cells were then switched to osteogenic medium (Lonza PT-3002) for 12 days, after which they were treated with DMSO or 10 μM DIPQUO for an additional 6 days. […] Staining was quantified using the Osteogenesis Quantitation kit (Millipore ECM815) following manufacturer's instructions. […] Absorbance was measured at 405 nm using an EMax Plus microplate reader and SoftMax Pro 7.0 software. […]

MKK3/6 = experiment: Western blotting of MKK3/6 in BRITER cells; type: cell-based, mouse
Description: Cells were maintained in DMEM with 10% FBS. For analysis of DIPQUO effects independent of BMP signaling, BMP-2 and BMP-4 knockdown was achieved by treating cells overnight with 1 μM 4-hydroxytamoxifen (4-OHT), followed by continued maintenance in 1 μM 4-OHT. Cells were serum-starved for at least 6 hours before treatment with recombinant BMP protein or DIPQUO as noted in figure legends.
Whole cell extracts were collected from C2C12 or BRITER cells in complete lysis buffer (20 mM Tris, 150 mM NaCl, 50 mM NaF, 1% NP40 substitute, HALT protease inhibitor cocktail (ThermoScientific). Proteins were resolved by electrophoresis on pre-cast 10% NuPage Bis-Tris gels (Invitrogen) and transferred to PVDF membranes (Bio-Rad). Membranes were blocked in 5% BSA-TBS-0.5% Tween-20 for 15 minutes, then incubated at 4° overnight with primary antibodies. Antibodies used were: rabbit anti-phospho-p38 MAPK (cat. no. 9211), anti-p38 MAPK XP (8690), anti-phospho-SMAD1/5 (9516), anti-SMAD1 XP (6944), anti-phospho-SMAD2/3 (8828), anti-SMAD2/3 XP (8685), anti-phospho-JNK (4668), anti-SAPK/JNK (9252), anti-phospho-Akt XP (4060), pan anti-Akt (4691), anti-phospho ERK p42/p44 (4377), anti-ERK p42/p44 (9102), anti-phospho-MKK3/6 (12280), anti-MKK3 (8535), anti-phospho-TAK1 (4531), anti-TAK1 (5206), anti-HA (3274), and anti-FLAG (14793); all from Cell Signaling); and mouse anti-p38α (cat. no. […]

With `Cc1cc(C)c2[nH]c(=O)c(-c3[nH]cnc3-c3ccccc3)cc2c1` [RU-0226606, 6,8-dimethyl-3-(4-phenyl-1H-imidazol-5-yl)quinolin-2(1H)-one] the cellular morphology (C2C12 cells; C2C12) was “rapid rearrangement of cellular architecture from fibroblast-like to a cuboidal phenotype”, the “effect of continued treatment on C2C12 culture” value (C2C12 cells; continued treatment, partially rescued by IGF-1) was “attrition of the C2C12 culture” and the “AP-1 response element luciferase reporter activation” value (AP-1 response element) was “Neither did DIPQUO stimulate activation”. For the same compound, the “ALP expression by staining” value [1] was “rapidly stimulate ALP expression within 2 days”, the “alizarin red incorporation, molar ratio relative to DMSO-treated samples” value [2] was “approximately 5 times” and the “phosphorylation of MKK3/6” value (MKK3/6) was “stimulated rapid phosphorylation of MKK3/6”.
